Measurements: patent US9775844B2, “Heterocyclic compounds and uses thereof” (Infinity Pharmaceuticals, Inc., priority 2014, dated 2017)

Tests used:
PI3K α = PI3K α (Homo sapiens (Human), UniProt P42336); experiment: PI3-Kinase Promega ADP-Glo Max assay; format: biochemical
PI3K β = PI3K β (Homo sapiens (Human), UniProt P42338); experiment: PI3-Kinase Promega ADP-Glo Max assay; format: biochemical
PI3K δ = PI3K δ (Homo sapiens (Human), UniProt O00329); experiment: PI3-Kinase Promega ADP-Glo Max assay; format: biochemical
PI3K δ, sequence (O00329 whole entry): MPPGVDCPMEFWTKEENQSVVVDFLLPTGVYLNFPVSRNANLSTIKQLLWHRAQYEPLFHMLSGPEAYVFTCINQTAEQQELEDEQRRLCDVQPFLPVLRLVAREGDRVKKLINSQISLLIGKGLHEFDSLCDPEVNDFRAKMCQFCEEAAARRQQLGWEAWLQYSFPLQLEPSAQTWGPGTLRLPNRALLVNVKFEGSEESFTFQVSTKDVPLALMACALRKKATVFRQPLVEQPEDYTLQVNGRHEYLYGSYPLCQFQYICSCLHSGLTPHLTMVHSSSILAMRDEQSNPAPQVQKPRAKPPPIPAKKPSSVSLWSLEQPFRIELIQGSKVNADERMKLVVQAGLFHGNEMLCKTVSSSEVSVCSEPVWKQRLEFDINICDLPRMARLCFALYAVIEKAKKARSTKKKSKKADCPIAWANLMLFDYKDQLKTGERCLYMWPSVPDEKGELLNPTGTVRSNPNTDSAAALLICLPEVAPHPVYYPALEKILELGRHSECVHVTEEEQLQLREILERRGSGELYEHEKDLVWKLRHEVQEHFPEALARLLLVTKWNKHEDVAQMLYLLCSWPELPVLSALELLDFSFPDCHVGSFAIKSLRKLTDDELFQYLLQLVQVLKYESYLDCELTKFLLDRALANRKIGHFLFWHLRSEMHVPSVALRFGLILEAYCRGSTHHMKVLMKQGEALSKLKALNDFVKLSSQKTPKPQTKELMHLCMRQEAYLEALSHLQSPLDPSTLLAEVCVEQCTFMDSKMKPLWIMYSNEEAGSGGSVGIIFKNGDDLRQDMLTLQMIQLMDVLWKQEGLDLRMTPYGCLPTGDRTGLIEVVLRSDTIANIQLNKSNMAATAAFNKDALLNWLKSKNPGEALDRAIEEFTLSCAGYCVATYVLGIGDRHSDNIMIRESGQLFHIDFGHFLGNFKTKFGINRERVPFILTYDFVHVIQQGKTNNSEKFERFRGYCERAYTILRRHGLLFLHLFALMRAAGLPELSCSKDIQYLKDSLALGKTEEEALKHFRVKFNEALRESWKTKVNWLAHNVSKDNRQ
PI3K δ, sequence (P27986 whole entry partner): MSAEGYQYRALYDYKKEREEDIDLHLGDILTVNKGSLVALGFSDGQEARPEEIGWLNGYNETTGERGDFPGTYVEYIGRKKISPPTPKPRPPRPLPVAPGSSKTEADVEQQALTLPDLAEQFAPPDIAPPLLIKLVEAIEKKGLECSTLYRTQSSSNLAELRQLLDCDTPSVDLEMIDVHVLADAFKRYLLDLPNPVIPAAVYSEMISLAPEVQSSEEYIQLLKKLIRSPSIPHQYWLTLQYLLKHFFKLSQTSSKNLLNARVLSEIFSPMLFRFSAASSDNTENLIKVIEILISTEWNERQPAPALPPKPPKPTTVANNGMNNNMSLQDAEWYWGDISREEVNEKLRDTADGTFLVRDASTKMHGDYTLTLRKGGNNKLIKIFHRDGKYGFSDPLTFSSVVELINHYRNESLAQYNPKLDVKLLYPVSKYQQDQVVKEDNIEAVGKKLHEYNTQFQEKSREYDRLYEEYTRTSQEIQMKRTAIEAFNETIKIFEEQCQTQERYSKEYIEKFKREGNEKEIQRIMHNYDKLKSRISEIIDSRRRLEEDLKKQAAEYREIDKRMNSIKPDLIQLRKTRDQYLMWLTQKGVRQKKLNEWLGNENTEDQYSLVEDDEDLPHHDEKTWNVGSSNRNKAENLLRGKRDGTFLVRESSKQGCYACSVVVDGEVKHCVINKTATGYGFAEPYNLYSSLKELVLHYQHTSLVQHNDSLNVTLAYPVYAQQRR

PI3K γ = PI3K γ (Homo sapiens (Human), UniProt P48736); experiment: PI3-Kinase Promega ADP-Glo Max assay; format: biochemical
PI3K γ, sequence (P48736 whole entry): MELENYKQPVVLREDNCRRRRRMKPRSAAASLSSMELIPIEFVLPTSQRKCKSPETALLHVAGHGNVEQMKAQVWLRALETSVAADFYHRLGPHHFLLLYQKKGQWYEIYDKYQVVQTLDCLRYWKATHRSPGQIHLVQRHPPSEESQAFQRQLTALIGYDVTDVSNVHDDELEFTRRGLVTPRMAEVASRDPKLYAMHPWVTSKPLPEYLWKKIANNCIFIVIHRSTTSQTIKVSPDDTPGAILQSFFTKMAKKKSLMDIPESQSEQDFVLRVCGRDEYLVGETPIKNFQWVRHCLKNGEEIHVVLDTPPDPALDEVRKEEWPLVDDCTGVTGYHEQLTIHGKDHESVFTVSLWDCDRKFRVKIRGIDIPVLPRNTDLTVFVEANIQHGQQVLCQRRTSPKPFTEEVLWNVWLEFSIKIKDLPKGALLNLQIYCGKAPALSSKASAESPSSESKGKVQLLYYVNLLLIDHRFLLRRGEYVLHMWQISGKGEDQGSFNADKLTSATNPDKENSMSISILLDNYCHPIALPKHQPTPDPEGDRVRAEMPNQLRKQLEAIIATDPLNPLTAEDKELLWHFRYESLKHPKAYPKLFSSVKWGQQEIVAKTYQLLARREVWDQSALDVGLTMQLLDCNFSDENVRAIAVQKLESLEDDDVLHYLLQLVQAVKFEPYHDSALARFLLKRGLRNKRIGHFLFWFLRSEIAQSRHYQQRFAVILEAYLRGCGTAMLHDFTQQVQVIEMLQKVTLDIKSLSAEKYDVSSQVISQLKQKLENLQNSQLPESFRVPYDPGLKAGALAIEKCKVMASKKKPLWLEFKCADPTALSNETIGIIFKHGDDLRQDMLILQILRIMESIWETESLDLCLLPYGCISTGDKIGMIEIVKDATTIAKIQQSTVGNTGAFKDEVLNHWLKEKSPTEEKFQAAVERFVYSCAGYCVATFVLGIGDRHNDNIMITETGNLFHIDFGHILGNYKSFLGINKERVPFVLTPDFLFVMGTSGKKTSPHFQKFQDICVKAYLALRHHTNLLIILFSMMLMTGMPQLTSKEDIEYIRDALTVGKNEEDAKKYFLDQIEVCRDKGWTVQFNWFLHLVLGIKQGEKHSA

PI3K-δ in RAJI cells = PI3K-δ in RAJI cells (Homo sapiens (Human), UniProt O00329); experiment: RAJI p110 δ assay (PI3K-δ selective cellular assay, phospho-AKT); format: cell-based; settings: phospho-AKT; read-out: RAJI p110 δ assay IC50
PI3K-δ in RAJI cells, sequence (O00329 whole entry): as the sequence (O00329 whole entry) above
PI3K-δ in RAJI cells, sequence (P27986 whole entry partner): as the sequence (P27986 whole entry partner) above

[1] = target: PI3K-γ in RAW264.7 macrophages (Mus musculus (Mouse), UniProt Q9JHG7); experiment: Raw264.7 p110 γ assay (PI3K-γ selective cellular assay, C5a-stimulated phospho-AKT); format: cell-based; settings: for IC50: phospho-AKT, read-out: Raw264.7 p110 γ assay IC50

PI3K β, sequence (P42338 whole entry): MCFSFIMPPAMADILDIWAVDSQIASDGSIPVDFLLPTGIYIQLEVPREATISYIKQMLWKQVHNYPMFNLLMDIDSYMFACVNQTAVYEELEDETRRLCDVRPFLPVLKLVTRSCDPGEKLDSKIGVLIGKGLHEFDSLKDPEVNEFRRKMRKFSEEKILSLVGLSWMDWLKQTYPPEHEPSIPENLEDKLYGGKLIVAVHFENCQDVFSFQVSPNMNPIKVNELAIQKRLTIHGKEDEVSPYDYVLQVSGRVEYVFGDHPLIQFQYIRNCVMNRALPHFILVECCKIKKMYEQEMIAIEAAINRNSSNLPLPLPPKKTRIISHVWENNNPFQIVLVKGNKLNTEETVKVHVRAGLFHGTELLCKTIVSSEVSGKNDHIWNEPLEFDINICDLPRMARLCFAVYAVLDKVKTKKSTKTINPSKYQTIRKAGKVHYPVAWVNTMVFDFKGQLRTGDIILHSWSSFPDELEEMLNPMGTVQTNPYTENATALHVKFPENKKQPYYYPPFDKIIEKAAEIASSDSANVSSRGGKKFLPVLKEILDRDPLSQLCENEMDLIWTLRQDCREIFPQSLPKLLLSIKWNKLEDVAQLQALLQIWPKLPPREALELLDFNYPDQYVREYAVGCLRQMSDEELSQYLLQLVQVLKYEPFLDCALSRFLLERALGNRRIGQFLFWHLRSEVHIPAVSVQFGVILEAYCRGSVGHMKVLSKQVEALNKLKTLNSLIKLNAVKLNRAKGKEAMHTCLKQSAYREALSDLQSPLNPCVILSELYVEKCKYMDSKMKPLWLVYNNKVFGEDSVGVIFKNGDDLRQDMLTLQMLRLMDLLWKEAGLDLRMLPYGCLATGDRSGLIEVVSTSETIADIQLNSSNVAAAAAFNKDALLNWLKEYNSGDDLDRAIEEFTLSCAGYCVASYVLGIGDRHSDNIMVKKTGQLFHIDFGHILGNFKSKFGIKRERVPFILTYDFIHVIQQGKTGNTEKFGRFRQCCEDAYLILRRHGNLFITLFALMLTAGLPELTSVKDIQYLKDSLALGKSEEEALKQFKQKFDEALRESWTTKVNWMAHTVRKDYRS
PI3K β, sequence (P27986 whole entry partner): as the sequence (P27986 whole entry partner) above

IC50 (PI3K α) | IC50 (PI3K β) | IC50 (PI3K δ) | IC50 (PI3K γ) | PI3K δ/PI3K γ IC50 (selectivity) (PI3K γ) | IC50 (PI3K-δ in RAJI cells) | RAJIδ/Raw264.7 γ IC50 (selectivity) [1] | IC50 [1] | Compound
1000 to 5000 nM | 1000 to 5000 nM | 1000 to 5000 nM | 1000 to 5000 nM | W (W = >1 to <10) | 100 to 500 nM | W (W = >1 to <10) | 1 to 50 nM | C[C@H](NC(=O)c1c(N)nn2cccnc12)c1cc2cccc(C#CC3CC3)c2c(=O)n1C1CC1 [Compound 24]
5000 to 10000 nM | 5000 to 10000 nM | 5000 to 10000 nM | 1000 to 5000 nM | W (W = >1 to <10) | 1000 to 10000 nM | X (X = 10 to <50) | 100 to 10000 nM | C[C@H](NC(=O)c1c(N)nn2cccnc12)c1cc2cccc(C#CC3CCCC3)c2c(=O)n1-c1ccccc1 [Compound 64]
5000 to 10000 nM | 5000 to 10000 nM | 5000 to 10000 nM | 500 to 1000 nM | W (W = >1 to <10) | 100 to 500 nM | W (W = >1 to <10) | 50 to 100 nM | C[C@H](NC(=O)c1c(N)nn2cccnc12)c1cc2cccc(C#CCN(C)C)c2c(=O)n1-c1ccccc1 [Compound 57]
5000 to 10000 nM | 5000 to 10000 nM | 5000 to 10000 nM | 100 to 500 nM | Y (Y = 50 to <850) | 100 to 500 nM | Y (Y = 50 to <850) | 1 to 50 nM | C[C@H](NC(=O)c1c(N)nn2cccnc12)c1cc2cccc(C#Cc3cncs3)c2c(=O)n1-c1ccccc1 [Compound 41]
1000 to 5000 nM | 1000 to 5000 nM | 1 to 500 nM | 1 to 100 nM | X (X = 10 to <50) | 1 to 100 nM | W (W = >1 to <10) | 1 to 50 nM | C[C@H](NC(=O)c1c(N)nn2cccnc12)c1cc2cccc(C#CCN3CCCC3=O)c2c(=O)n1-c1ccccc1 [Compound 14]
5000 to 10000 nM | 5000 to 10000 nM | 5000 to 10000 nM | 500 to 1000 nM | X (X = 10 to <50) | 1000 to 10000 nM | Y (Y = 50 to <850) | 1 to 50 nM | Cc1nc(C)c(C#Cc2cccc3cc([C@H](C)NC(=O)c4c(N)nn5cccnc45)n(-c4ccccc4)c(=O)c23)s1 [Compound 79]
5000 to 10000 nM | 1000 to 5000 nM | 1000 to 5000 nM | 1 to 100 nM | Y (Y = 50 to <850) | 100 to 500 nM | X (X = 10 to <50) | 1 to 50 nM | C[C@H](O)C#Cc1cccc2cc([C@H](C)NC(=O)c3c(N)nn4cccnc34)n(-c3ccccc3)c(=O)c12 [Compound 16]
1000 to 5000 nM | 1000 to 5000 nM | 5000 to 10000 nM | 1000 to 5000 nM | W (W = >1 to <10) | 500 to 1000 nM | X (X = 10 to <50) | 1 to 50 nM | C[C@H](NC(=O)c1c(N)nn2cccnc12)c1nc2cccc(C#Cc3cnn(C)c3)c2c(=O)n1C [Compound 55]
5000 to 10000 nM | 1000 to 5000 nM | 500 to 1000 nM | 1 to 100 nM | X (X = 10 to <50) | 1 to 100 nM | W (W = >1 to <10) | 1 to 50 nM | C[C@H](NC(=O)c1c(N)nn2cccnc12)c1cc2cccc(C#CCO)c2c(=O)n1-c1ccccc1 [Compound 13]
5000 to 10000 nM | 5000 to 10000 nM | 5000 to 10000 nM | 500 to 1000 nM | X (X = 10 to <50) | 1000 to 10000 nM | W (W = >1 to <10) | 100 to 10000 nM | C[C@H](NC(=O)c1c(N)nn2cccnc12)c1cc2cccc(C#CC3CCNCC3)c2c(=O)n1-c1ccccc1 [Compound 72]
5000 to 10000 nM | 5000 to 10000 nM | 5000 to 10000 nM | 100 to 500 nM | Y (Y = 50 to <850) | 500 to 1000 nM | Y (Y = 50 to <850) | 1 to 50 nM | Cc1nn(C)cc1C#Cc1cccc2cc([C@H](C)NC(=O)c3c(N)nn4cccnc34)n(-c3ccccc3)c(=O)c12 [Compound 19]
5000 to 10000 nM | 5000 to 10000 nM | 5000 to 10000 nM | 1 to 100 nM | Y (Y = 50 to <850) | 500 to 1000 nM | Y (Y = 50 to <850) | 1 to 50 nM | Cc1ncc(C#Cc2cccc3cc([C@H](C)NC(=O)c4c(N)nn5cccnc45)n(-c4ccccc4)c(=O)c23)n1C [Compound 38]
5000 to 10000 nM | 5000 to 10000 nM | 5000 to 10000 nM | 1000 to 5000 nM | W (W = >1 to <10) | 1000 to 10000 nM | Y (Y = 50 to <850) | 1 to 50 nM | Cc1nn(C)c(C)c1C#Cc1cccc2cc([C@H](C)NC(=O)c3c(N)nn4cccnc34)n(-c3ccccc3)c(=O)c12 [Compound 37]

Compound | IC50 (PI3K α) | IC50 (PI3K β) | IC50 (PI3K δ) | IC50 (PI3K γ) | PI3K δ/PI3K γ IC50 (selectivity) (PI3K γ) | IC50 (PI3K-δ in RAJI cells) | RAJIδ/Raw264.7 γ IC50 (selectivity) [1] | IC50 [1]
C[C@H](NC(=O)c1c(N)nn2cccnc12)c1cc2cccc(C#Cc3cncn3C)c2c(=O)n1-c1ccccc1 [Compound 7] | 5000 to 10000 nM | 5000 to 10000 nM | 5000 to 10000 nM | 100 to 500 nM | Y (Y = 50 to <850) | 500 to 1000 nM | Y (Y = 50 to <850) | 1 to 50 nM
C[C@H](NC(=O)c1c(N)nn2cccnc12)c1cc2cccc(C#Cc3cc[nH]c(=O)c3)c2c(=O)n1-c1ccccc1 [Compound 31] | 5000 to 10000 nM | 5000 to 10000 nM | 5000 to 10000 nM | 100 to 500 nM | X (X = 10 to <50) | 100 to 500 nM | W (W = >1 to <10) | 50 to 100 nM
C#Cc1cccc2nc([C@H](C)NC(=O)c3c(N)nn4cccnc34)n(C)c(=O)c12 [Compound 48] | 1000 to 5000 nM | 500 to 1000 nM | 1000 to 5000 nM | 500 to 1000 nM | W (W = >1 to <10) | 1 to 100 nM | V (V = 0.1 to 1) | 1 to 50 nM
C[C@H](NC(=O)c1c(N)nn2cccnc12)c1cc2cccc(C#CC3(O)CN4CCC3CC4)c2c(=O)n1-c1ccccc1 (some centres unmarked) [Compound 62] | 5000 to 10000 nM | 5000 to 10000 nM | 5000 to 10000 nM | 500 to 1000 nM | X (X = 10 to <50) | 1000 to 10000 nM | V (V = 0.1 to 1) | 100 to 10000 nM
C[C@H](NC(=O)c1c(N)nn2cccnc12)c1cc2cccc(NC(=O)c3cnn(C)c3)c2c(=O)n1-c1ccccc1 [Compound 90] | 5000 to 10000 nM | 5000 to 10000 nM | 5000 to 10000 nM | 1000 to 5000 nM | W (key: V = 0.1 to 1; W = >1 to <10; X = 10 to <50; Y = 50 to <850) | 1000 to 10000 nM | X (key: V = 0.1 to 1; W = >1 to <10; X = 10 to <50; Y = 50 to <850) | 100 to 10000 nM
C[C@H](NC(=O)c1c(N)nn2cccnc12)c1cc2cccc(C#CC3CCN(S(C)(=O)=O)CC3)c2c(=O)n1-c1ccccc1 [Compound 83] | 5000 to 10000 nM | 5000 to 10000 nM | 5000 to 10000 nM | 500 to 1000 nM | X (key: V = 0.1 to 1; W = >1 to <10; X = 10 to <50; Y = 50 to <850) | 500 to 1000 nM | X (key: V = 0.1 to 1; W = >1 to <10; X = 10 to <50; Y = 50 to <850) | 1 to 50 nM
